The values below come from US20250281488A1, “VCP INHIBITORS AND USES THEREOF FOR TREATMENT” (The Francis Crick Institute Limited, priority 2021, published 2025).

Broadly, the EC50 is the concentration needed to bring the measured effect to its halfway point. In general, IC50 refers to the point on the concentration scale where inhibition reaches its midpoint.

For experiment [1], the system named is Ub-G76V. The settings on record: read-out: Potency of inhibition: EC50 on Ub-G76V in cell culture; cited from earlier work.
The target in experiment [2] is VCP ATPase (Homo sapiens, UniProt P55072). The settings on record: read-out: Potency of inhibition: IC50 on ATPase in vitro; cited from earlier work.
Chain of VCP ATPase (P55072 whole entry): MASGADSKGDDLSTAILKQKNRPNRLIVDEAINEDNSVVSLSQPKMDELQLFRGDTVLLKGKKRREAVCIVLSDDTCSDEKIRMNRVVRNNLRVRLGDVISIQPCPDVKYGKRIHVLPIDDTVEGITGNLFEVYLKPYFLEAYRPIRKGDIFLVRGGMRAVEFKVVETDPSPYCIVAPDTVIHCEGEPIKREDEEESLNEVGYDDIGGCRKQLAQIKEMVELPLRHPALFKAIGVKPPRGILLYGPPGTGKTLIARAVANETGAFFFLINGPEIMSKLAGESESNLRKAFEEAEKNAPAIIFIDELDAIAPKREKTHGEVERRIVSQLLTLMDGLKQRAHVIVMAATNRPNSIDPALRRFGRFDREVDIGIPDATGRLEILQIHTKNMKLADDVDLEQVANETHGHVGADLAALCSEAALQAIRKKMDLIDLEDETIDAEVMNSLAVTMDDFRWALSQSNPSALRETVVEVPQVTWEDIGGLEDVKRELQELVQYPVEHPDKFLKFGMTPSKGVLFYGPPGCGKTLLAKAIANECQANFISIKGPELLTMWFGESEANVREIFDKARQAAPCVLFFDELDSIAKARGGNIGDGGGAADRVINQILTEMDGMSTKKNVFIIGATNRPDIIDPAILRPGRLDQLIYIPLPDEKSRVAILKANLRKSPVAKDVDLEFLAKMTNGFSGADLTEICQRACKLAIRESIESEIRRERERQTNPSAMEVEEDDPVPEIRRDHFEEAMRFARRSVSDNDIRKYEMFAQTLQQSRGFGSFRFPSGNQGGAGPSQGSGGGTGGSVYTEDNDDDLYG
Experiment [3] has as its system control motor neurons. Description: RBP localisation by immunofluorescence in control iPSC-derived motor neurons. It counts as cell-based, human. The settings on record: vs untreated. The procedure:
(§1) Cell culture and motor neuron differentiation. IPSCs were maintained with Essential 8 Medium media (Life Technologies) on Geltrex (Life Technologies), and passaged using EDTA (Life Technologies, 0.5 mM). IPSC cultures were kept at 37° C. and 5% carbon dioxide. IPSCs underwent differentiation into spinal cord motor neurons as described in Hall et al, 2017 [12].
(§2) IPSC were plated to 100% confluency and then differentiated to the neuroepithelium in medium consisting of DMEM/F12 Glutamax, Neurobasal, L-Glutamine, N2 supplement, nonessential amino acids, B27 supplement, β-mercaptoethanol (all from Life Technologies) and insulin (Sigma). The cells underwent a sequential treatment with small molecules, with day 0-7: 1 μM Dorsomorphin (Millipore), 2 μM SB431542 (Tocris Bioscience), and 3.3 μM CHIR99021 (Miltenyi Biotec), day 7-14: 0.5 μM retinoic acid (Sigma) and 1 μM Purmorphamine (Sigma), day 14-18: 0.1 μM Purmorphamine. Following 18 days of neural conversion and patterning, neural precursors were terminally differentiated in 0.1 μM Compound E (Enzo Life Sciences).
(§3) […] neuroepithelial layer was enzymatically dissociated using dispase (GIBCO, 1 mg ml−1). The neural precursors were dissociated with Accutase (Life Technologies) for final plating onto a 96 well plate (Falcon) coated with polyethylenimine (PEI) (2.2 mg/ml in 0.1M of sodium borate (Sigma) and Geltrex. Following 6 days of terminal differentiation, cells were fixed in 4% paraformaldehyde for immunolabeling.
(§4) Inhibitor treatment. Motor neuron cultures were treated with 1 μM of ML240 (Sigma; SML1071; CAS:1346527-98-7) for 2 hours, 5 μM of DBeQ for 3 hours or 1 μM of CB-5083 for 3 hours.
(§5) Immunofluorescence staining. Cells were fixed in 4% paraformaldehyde in PBS for 15 minutes at room temperature (RT). For permeabilization and non-specific antibody blocking, 0.3% Triton-X containing 5% bovine serum albumin (BSA) (Sigma) in PBS was added for 60 minutes. Primary antibodies were made up in 5% BSA and then applied overnight at 4° C. Primary antibodies used were SMI-32 (BioLegend; 801701; mouse; 1:1000), ChAT (Millipore; AB144P; goat; 1:100), βIII-tubulin (abcam; ab41489; chicken; 1:1000), TDP-43 (ProteinTech; 12892-1-AP; rabbit; 1:400), SFPQ (abcam; ab11825; mouse; 1:400), FUS (Santa Cruz; sc-47711; mouse; 1:200), hnRNPA1 (Cell Signaling; 8443S; rabbit; 1:500), hnRNPK (Santa Cruz; sc-28380; mouse; 1:500). A species-specific Alexa Fluor-conjugated secondary antibody (Life Technologies) at 1:1000 dilution in 5% BSA was added for 90 minutes at RT in the dark. Cells were washed once in PBS containing DAPI, 4′,6-diamidino-2-phenylindole nuclear stain (1:1000) for 10 minutes.
(§6) Image acquisition and analysis. Images were acquired using the Opera Phenix High-Content Screening System (Perkin Elmer). Images were acquired with a 40× objective as confocal z-stacks with a z-step of 1 μm. Stacks were processed to obtain a maximum intensity projection. A minimum of 12 fields of view were taken for each well. To calculate the nuclear:cytoplasmic ratio of RNA-binding proteins (RBPs) in single cells, images were analysed using the Columbus Image Analysis System (Perkin Elmer). A DAPI mask defined the nucleus, and based on nuclear properties a trained machine learning feature selected neurons in an automated fashion. For each individual cell an average nuclear intensity of the RBP of interest was measured. For the cytoplasmic measurement, a 1.5 μm cytoplasmic region was defined around the nucleus within a cytoplasmic mask and an average intensity measured. […] A ratio of the nuclear:cytoplasmic average intensity measurements was calculated per cell. An average of each field was calculated and then averaged across the well.
(§7) For the nuclear:neurite ratio, we implemented a semi-automated image analysis pipeline combining Ilastik, Cellprofiler and ImageJ.

For experiment [4], the system named is VCP mutant motor neurons. Description: RBP localisation by immunofluorescence in VCP mutant iPSC-derived motor neurons. Type of experiment: cell-based, human. The protocol:
as §1, §2, §3, §4, §5, §6, §7

The test system of experiment [5] is TARDBP-mutant (G298S) motor neurons. The following applies: 1 μM CB-5083, 3 hours, vs untreated.
Experimental: Immunofluorescence staining. Cells were fixed in 4% paraformaldehyde in PBS for 15 minutes at room temperature (RT). For permeabilization and non-specific antibody blocking, 0.3% Triton-X containing 5% bovine serum albumin (BSA) (Sigma) in PBS was added for 60 minutes. Primary antibodies were made up in 5% BSA and then applied overnight at 4° C. […]
Image acquisition and analysis. […] To calculate the nuclear:cytoplasmic ratio of RNA-binding proteins (RBPs) in single cells, images were analysed using the Columbus Image Analysis System (Perkin Elmer). […] For each individual cell an average nuclear intensity of the RBP of interest was measured. For the cytoplasmic measurement, a 1.5 μm cytoplasmic region was defined around the nucleus within a cytoplasmic mask and an average intensity measured. […] A ratio of the nuclear:cytoplasmic average intensity measurements was calculated per cell. An average of each field was calculated and then averaged across the well.
In experiment [6] the test system is control and VCP mutant motor neurons. Nature of the experiment: Western blot of TDP-43, FUS and SFPQ protein levels. It counts as cell-based, human. The following applies: 1 μM ML240, 2 hours; whole cells. The procedure: Western blot analysis. Protein levels of TDP-43, FUS and SFPQ were assessed in whole cells in control and VCP mutant motor neurons. Cells were subjected to untreated conditions or treatment of 1 μM of ML240 for 2 hours prior to protein extraction. The cells were lysed and proteins were extracted with RIPA disruption. Total protein concentration was quantified using BCA protein assay (Sigma). Equal amounts of protein samples were then loaded onto a gel and separated by SDS PAGE and transferred onto a nitrocellulose membrane. Samples were then blocked with PBS, 0.1% Tween, 5% dry milk powder at RT for one hour followed by primary antibody incubation overnight at 4° C. The following antibodies were diluted in PBS 5% BSA; TDP-43 (ProteinTech; 12892-1-AP; rabbit; 1:1000), SFPQ (Abcam; 11825; mouse; 1:250), FUS (Santa Cruz; sc-47711; mouse; 1:500), GAPDH (GeneTex; GT239; mouse; 1:10000). For detection, membranes were incubated with species-specific near infra-red fluorescent antibodies (IRDye, Licor) at RT for one hour and imaged using an Odyssey Fc Imaging System (Licor).

[7] abbreviates: 1 μM ML240, 2 hours, normalised to control untreated.

Entries after “also recorded” stand apart in the source; their conditions may differ. Like-named read-outs stand apart in the source and are kept apart here.

Consider “3,4-methylenedioxy-6-nitrostyrene [Syk inhibitor III]”, for which the EC50 in experiment [1] was 1600 nM. Further, the IC50 in experiment [2] is 1700 nM.

Take `Cc1cc2c(C(N)=O)cccc2n1-c1nc2c(c(NCc3ccccc3)n1)COCC2` [CB-5083, 1-[7,8-dihydro-4-[(phenylmethyl)amino]-5H-pyrano[4,3-d]pyrimidin-2-yl]-2-methyl-1H-indole-4-carboxamide]: the “TDP-43 nuclear:cytoplasmic ratio (N/C)” value in experiment [3] (1 μM CB-5083, 3 hours) was “increase”; in experiment [4] (1 μM CB-5083, 3 hours, vs untreated), “able to reverse”; in experiment [4] (1 μM CB-5083, 3 hours, vs untreated, listed as CB5083), “increase”; in experiment [5], “increased”; in experiment [5] (listed as CB5083) it was “increase”.

Turning to `c1ccc(CNc2nc(NCc3ccccc3)c3ccccc3n2)cc1` [DBeQ, N2,N4-dibenzylquinazo-line-2,4-diamine], the concentration for a half-maximal effect (EC50) in experiment [1] is 2600 nM. The “TDP-43 nuclear:cytoplasmic ratio (N/C)” value in experiment [3] (5 μM DBeQ, 3 hours) is “increased”; in experiment [3] (5 μM DBeQ, 3 hours, listed as DBEQ) it was “increase”; in experiment [4] (5 μM DBeQ, 3 hours, vs untreated), “able to reverse”; in experiment [4] (5 μM DBeQ, 3 hours, vs untreated, listed as DBEQ), “increase”. Moreover, the IC50 in experiment [2] was 1500 nM.

In the case of `COc1cccc2c(NCc3ccccc3)nc(-n3c(N)nc4ccccc43)nc12` [ML240, 2-(2-Amino-1H-benzimidazole-1-yl)-8-methoxy-N-(phenylmethyl)-4-quinazolinamine], in experiment [3] (1 μM ML240, 2 hours), the “FUS nuclear:cytoplasmic ratio” value is reported as “no difference”, the “FUS nuclear:neurite ratio” value is given as “small increase”, the “SFPQ nuclear:cytoplasmic ratio” value is listed as “no difference” and the “SFPQ nuclear:neurite ratio” value is given as “no difference”. Moreover, in experiment [3] (1 μM ML240, 2 hours), the “TDP-43 nuclear:cytoplasmic ratio (N/C)” value is on record as “increase”, the “TDP-43 nuclear:neurite ratio (Nu/Ne)” value was “no such increase was observed; also recorded: no difference”, the “hnRNPA1 nuclear:cytoplasmic ratio” value is on record as “no difference” and the “hnRNPK nuclear:cytoplasmic ratio” value is on record as “no difference”. Also, in experiment [6], the “FUS overall protein level (Western blot, normalised to GAPDH)” value is recorded as “did not change; also recorded: does not change”; the “SFPQ overall protein level (Western blot, normalised to GAPDH)” value is listed as “did not change; also recorded: does not change”; the “TDP-43 overall protein level (Western blot, normalised to GAPDH)” value is “did not change; also recorded: does not change”. Also, in experiment [4] (1 μM ML240, 2 hours), the “hnRNPA1 nuclear:cytoplasmic ratio” value is recorded as “no change” and the “hnRNPK nuclear:cytoplasmic ratio” value is on record as “no change”. For the same compound, in experiment [4] (setting [7]), the “FUS nuclear:cytoplasmic ratio” value is given as “robustly reversed the mislocalization; also recorded: increase”, the “FUS nuclear:neurite ratio” value is listed as “robustly reversed the mislocalization; also recorded: increase of the nuclear:neurite ratio to control values”, the “SFPQ nuclear:neurite ratio” value is “significantly reversed; also recorded: increase” and the “TDP-43 nuclear:cytoplasmic ratio (N/C)” value is “robustly reversed the mislocalization; also recorded: increased above control values”. For the same compound, the “TDP-43 nuclear:neurite ratio (Nu/Ne)” value in experiment [4] (setting [7]) is given as “robustly reversed the mislocalization; also recorded: increased”.

Regarding `Cc1cc(OCc2nnc(SC3CCCC3)n2-c2cccnc2)ccc1-c1ccc(S(C)(=O)=O)cc1` [NMS-873], the EC50 in experiment [1] was 400 to 700 nM.
